Reference: patent publication US8461181B2, “Fused heterocyclic compound and use thereof” (Sumitomo Chemical Company, Ltd., priority 2009, dated 2013)

Columns and labels:
Type in all cases: in vivo
Aphis gossypii [1] = experiment: Test Example 1: spray on cucumber seedling inoculated with Aphis gossypii; conditions: 500 ppm, 10 ml sprayed on cucumber seedling inoculated with about 30 Aphis gossypii; five days after spraying
Description: The formulations of the present active compounds (1) to (15), (17) to (25), (27) to (56), (101) to (103), (105) to (108), (117), (118), (121) to (130), (133) to (144), (147), (148), (152) to (156), (202), (204) to (206), (208), (209), (211) to (213), and (216) to (221) obtained by Formulation Example 5 were diluted with water so that the active ingredient concentration was 500 ppm, to prepare spray solutions for test. Separately, a cucumber seedling (second true leaf spreading stage) planted on a plastic cup was inoculated with about 30 Aphis gossypii, and left for 1 day. The above-described diluted solutions were sprayed each in an amount of 10 ml on this seedling. Five days after spraying, the number of insect of living Aphis gossypii […] on the leaves of this cucumber was checked, and the control value was calculated according to the following formula. Control value (%)={1-(Cb×Tai)/(Cai×Tb)}×100 Letters in the formula represent the following meanings. Cb: the number of insect before treatment on non-treated district Cai: the number of insect in observation on non-treated district Tb: the number of insect before treatment on treated district Tai: the number of insect in observation on treated district

Bemisia tabaci = experiment: Test Example 5: spray on tomato seedling with Bemisia tabaci larvae; conditions: 168 h, 10 ml/cup sprayed on tomato seedling with hatching Bemisia tabaci larvae, 7 days at 25° C.
Description: The formulations of the present active compounds (1) to (5), (7) to (15), (17) to (21), (25), (28) to (45), (48) to (56), (101) to (103), (106), (107), (117), (118), (121) to (145), (147) to (151), (153) to (155), (204), (206), (208), (209), (211) to (213) and (216) to (221) obtained by Formulation Example 5 were diluted with water so that the active ingredient concentration was 500 ppm, to prepare spray solutions for test. Separately, on a tomato seedling planted on a plastic cup, Bemisia tabaci adult insects were released and allowed to lay eggs for about 24 hours. The tomato seedling was kept in a greenhouse […], and the above-described spray solutions for test were sprayed at a proportion of 10 ml/cup on the condition of hatching of larvae from the laid eggs, and kept in a greenhouse of 25° C. for 7 days. The number of living larvae on the tomato leaves was checked, and the control value was calculated according to the following formula. Control value (%)={1−(Cb×Tai)/(Cai×Tb)}×100 Letters in the formula represent the following meanings. Cb: the number of insect before treatment on non-treated district Cai: the number of insect in observation on non-treated district Tb: the number of insect before treatment on treated district Tai: the number of insect in observation on treated district

Aphis gossypii [2] = experiment: Test Example 4: foot drench of cucumber seedling in plastic cup, inoculation after 7 days, Aphis gossypii; conditions: soil, 144 h, 5 ml drench at foot of cucumber seedling in plastic cup, kept 7 days at 25° C., inoculated, further 6 days
How it was run: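 Cucumber seedlings at second true leaf stage were soil-drenched with 5 ml of 500 ppm active ingredient and held 7 days at 25° C in greenhouse. Then 30 aphids (all stages) were placed on leaves; live insects counted 6 days later, control value (%) from treated/untreated counts before and after.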

Nilaparvata lugens [3] = experiment: Test Example 9: foot drench of rice seedling, twenty first instar larvae of Nilaparvata lugens; conditions: soil, 144 h, 5 ml drench at foot of rice seedling, kept 7 days, twenty first instar larvae released, further 6 days
Aphis gossypii [4] = experiment: Test Example 2: foot drench of cucumber seedling on urethane mat, Aphis gossypii; conditions: soil, 168 h, 5 ml drench at foot of cucumber seedling on urethane mat, inoculated one day after treatment, checked seven days after
Description: The formulations of the present active compounds (4), (5), (8), (9), (11), (12), (14), (15), (17), (20), (35) to (45), (48) to (51), (54) to (56), (206), (209) and (211) to (213) obtained by Formulation Example 5 were diluted with water so that the active ingredient concentration was 500 ppm, to prepare diluted solutions for test. Separately, a cucumber seedling (second true leaf spreading stage) planted on a urethane mat was drenched at its foot with each 5 ml of the diluted solutions, and one day after treatment, the cucumber leaf surface was inoculated with 30 Aphis gossypii (whole stage). Further seven days after, the number of insect of living Aphis gossypii […] on the leaves of this cucumber was checked, and the control value was calculated according to the following formula. Control value (%)={1-(Cb×Tai)/(Cai×Tb)}×100 Letters in the formula represent the following meanings. Cb: the number of insect before treatment on non-treated district Cai: the number of insect in observation on non-treated district Tb: the number of insect before treatment on treated district Tai: the number of insect in observation on treated district

Nilaparvata lugens [5] = experiment: Test Example 7: foot drench of rice seedling, thirty first instar larvae of Nilaparvata lugens; conditions: soil, 144 h, 5 ml drench at foot of rice seedling, kept 7 days, thirty first instar larvae released, further 6 days
Description: The formulations of the present active compounds (11), (13) to (15), (17), (23), (26), (35) to (41), (43) to (45), (48) to (51), (54), (55), (209), (211) and (212) obtained by Formulation Example 5 were diluted with water so that the active ingredient concentration was 500 ppm, to prepare diluted solutions for test. Separately, a rice seedling (2 weeks after sowing, second leaf spreading stage) planted on a plastic cup was drenched at its foot with each 5 ml of the diluted solutions, and kept in a greenhouse of 25° C. for 7 days. Thirty first instar larvae of Nilaparvata lugens were released, and further kept in the greenhouse for 6 days. The number of insect of living Nilaparvata lugens […] on rice was checked, and the control value was calculated according to the following formula. Control value (%)={1-(Cb×Tai)/(Cai×Tb)}×100 Letters in the formula represent the following meanings. Cb: the number of insect before treatment on non-treated district Cai: the number of insect in observation on non-treated district Tb: the number of insect before treatment on treated district Tai: the number of insect in observation on treated district

Structure (SMILES): CC(CC(=O)O)n1c(-c2ccncc2)nc2cc(C(F)(F)F)ccc21 (stereo not shown) [comparative compound (B)]
- control value (Aphis gossypii [1]): less than 30%

Structure (SMILES): Cc1cc2nc(-c3ccncc3)n(C)c2cc1C [comparative compound (C)]
- control value (Aphis gossypii [1]): less than 30%

Structure (SMILES): COCCc1cnccc1-c1nc2cc(C(F)(F)F)cnc2n1C [present active compound 106]
- pest or weed control at 500 ppm (Bemisia tabaci): ≥ 90%
- pest or weed control at 500 ppm (Aphis gossypii [2]): ≥ 90%
- pest or weed control at 500 ppm (Nilaparvata lugens [3]): ≥ 90%

Structure (SMILES): CCCCOc1cnccc1-c1nc2cc(C(F)(F)F)ccc2n1C [present active compound 206, 2-(3-butoxypyridin-4-yl-)-1-methyl-5-trifluoromethyl-1H-benzimidazole]
- pest or weed control at 500 ppm (Bemisia tabaci): ≥ 90%
- pest or weed control at 500 ppm (Aphis gossypii [4]): ≥ 90%

Structure (SMILES): C=C(CF)Oc1cnccc1-c1nc2cc(C(F)(F)F)ccc2n1C [present active compound 209, 2-[3-(1-fluoromethyl-vinyloxy)-pyridin-4-yl-]-1-methyl-5-trifluoromethyl-1H-benzimidazole]
- pest or weed control at 500 ppm (Nilaparvata lugens [5]): ≥ 90%
- pest or weed control at 500 ppm (Bemisia tabaci): ≥ 90%
- pest or weed control at 500 ppm (Aphis gossypii [4]): ≥ 90%
